Laboratory results from US20210292330A1, “PYRROLIDINE-FUSED HETEROCYCLES” (Erasca, Inc., priority 2020, published 2021).

Target: T1, KRAS 4B G12C protein (Homo sapiens, UniProt P01116, G12C)
T1 construct: This protein contained 188 amino acids in total, including an N-terminal 6-Histidine tag; made in house; host or cells: E. coli BL21
Test: In vitro covalent adduct formation (CAF) assay by LC-MS
Type: binding
Details: compound 10 μM, protein 5 μM, 22° C., percentage of protein bound by the compound
Procedure: In vitro covalent adduct formation assay: Covalent adduct formation (CAF) reactions between Cys12 of the KRAS 4B G12C protein and some of the compounds of Table 1 were measured in vitro using liquid chromatography-mass spectrometry (LC-MS).
Recombinant Human KRAS 4B protein containing the G12C mutation was used in compound screening experiments. This protein contained 188 amino acids in total, including an N-terminal 6-Histidine tag, followed by a Tobacco Etch Virus (TEV) tag, followed by residues 1-169 of the native KRAS 4B sequence. The exact mass of the protein was 21,310 Da as determined by mass spectrometry. The full amino acid sequence is shown below:
The recombinant protein was expressed in E. coli BL21 cells and purified using affinity chromatography via a Ni-NTA column. […] Pure KRAS 4B G12C protein was diluted to a concentration of 5 μM in Tris Buffered Saline, pH 7.4. The compounds were dissolved in DMSO and added to the diluted protein to make a 10 μM concentration. The total DMSO concentration in the reaction was 4%. The reaction was mixed by pipetting and incubated at 22° C. for one hour. Aliquots of the reaction were taken over time and diluted 2:1 in 0.1% formic acid. The intact mass of the protein samples was measured by LC-MS using a QExactive+ mass spectrometer (Thermo Scientific). An amount of 500 ng total protein was injected onto a C8 reverse phase column, eluted with a seven-minute gradient of 30%-90% acetonitrile/0.1% formic acid, and analyzed for intact mass by the mass spectrometer. Adducts identified were confirmed to be within 1 Dalton of the expected mass, and the relative ratios of free:adduct protein were used to quantify the percentage of protein bound by the compound. CAF reactions were run in duplicate, with a typical variability of ±5%.

Compound | CAF (10 minutes/60 minutes) at 10 micromolar: 10 minutes | CAF (10 minutes/60 minutes) at 10 micromolar: 60 minutes
C=CC(=O)N1CCN(c2nc(OC[C@@H]3CCCN3C)nc3c2CN(Cc2cc(OC)ccc2F)C3)C[C@@H]1CC#N [1-39] | 51% | 72%
C=CC(=O)N1CCN(c2nc(OC[C@@H]3CCCN3C)nc3c2CN(Cc2cc(O)ccc2C)C3)C[C@@H]1CC#N [1-40] | 98%/ 98% | 98%/ 98%
C=CC(=O)N1CCN(c2nc(OC[C@@H]3CCCN3C)nc3c2CN(Cc2cc(Cl)ccc2Cl)C3)[C@@H](C)C1 [1-41] | 3% | 22%
C=CC(=O)N1CCN(c2nc(OC[C@@H]3CCCN3C)nc3c2CN(C2CCc4ccccc42)C3)C[C@@H]1CC#N (stereo partly shown) [1-42] | 84% | 95%
C=CC(=O)N1CCN(c2nc(OC[C@@H]3CCCN3C)nc3c2CN(Cc2cc(O)ccc2Cl)C3)[C@@H](C)C1 [1-43] | 97% | 98%
C=CC(=O)N1CCN(c2nc(OC[C@@H]3CCCN3C)nc3c2CN(Cc2c(Cl)cccc2Cl)C3)C[C@@H]1CC#N [1-44] | 98% | 100%
C=CC(=O)N1CCN(c2nc(OC[C@@H]3CCCN3C)nc3c2CN(Cc2ccccc2C)C3)C[C@@H]1CC#N [1-45] | 94% | 98%
C=CC(=O)N1CCN(c2nc(OC[C@@H]3CCCN3C)nc3c2CN(Cc2cc(O)ccc2F)C3)C[C@@H]1CC#N [1-46] | 98% | 99%
C=CC(=O)N1CCN(c2nc(OC[C@@H]3CCCN3C)nc3c2CN(Cc2c(O)cccc2F)C3)[C@@H](C)C1 [1-47] | 11% | 43%
C=CC(=O)N1CCN(c2nc(OC[C@@H]3CCCN3C)nc3c2CN(c2cccc4cccc(C)c24)C3)C[C@@H]1CC(F)(F)F [1-48] | 0% | 1%
C=CC(=O)N1CCN(c2nc(OC[C@@H]3CCCN3C)nc3c2CN(Cc2cc(Cl)ccc2F)C3)C[C@@H]1CC#N [1-49] | 81% | 97%
C=CC(=O)N1CCN(c2nc(OC[C@@H]3CCCN3C)nc3c2CN(Cc2cc(O)ccc2F)C3)[C@@H](C)C1 [1-50] | 53% | 92%
C=CC(=O)N1CCN(c2nc(OC[C@@H]3CCCN3C)nc3c2CN(Cc2c(O)cccc2Cl)C3)C[C@@H]1CC#N [1-51] | 98%/ 98% | 98%/ 98%
C=CC(=O)N1CCN(c2nc(OC[C@@H]3CCCN3C)nc3c2CN(C2CCCc4ccccc42)C3)C[C@@H]1CC#N (stereo partly drawn) [1-52 (2nd isomer)] | 76% | 91%
C=CC(=O)N1CCN(c2nc(OC[C@@H]3CCCN3C)nc3c2CN(C2CCCc4ccccc42)C3)C[C@@H]1CC#N (stereo partly shown) [1-52] | 6% | 91%
C=CC(=O)N1CCN(c2nc(OC[C@@H]3CCCN3C)nc3c2CN(Cc2cc(OC(F)F)ccc2Cl)C3)C[C@@H]1CC#N [1-53] | 40% | 86%
C=CC(=O)N1CCN(c2nc(OC[C@@H]3CCCN3C)nc3c2CN(C(C)c2cc(O)ccc2C)C3)[C@@H](C)C1 (stereo partly shown) [1-54] | 70% | 77%
C=CC(=O)N1CCN(c2nc(OC[C@@H]3CCCN3C)nc3c2CN(Cc2c(C)cccc2O)C3)C[C@@H]1CC#N [1-55] | 78% | 91%
C=CC(=O)N1CCN(c2nc(OC[C@@H]3CCCN3C)nc3c2CN(Cc2c(F)cccc2OC(F)F)C3)C[C@@H]1CC#N [1-58] | 96% | 98%
C=CC(=O)N1CCN(c2nc(OC[C@@H]3CCCN3C)nc3c2CN(Cc2c(C)cccc2OC)C3)C[C@@H]1CC#N [1-59] | 46% | 98%

Compound | CAF (10 minutes/60 minutes) at 10 micromolar: 10 minutes | CAF (10 minutes/60 minutes) at 10 micromolar: 60 minutes
C=CC(=O)N1CCN(c2nc(OC[C@@H]3CCCN3C)nc3c2CN(Cc2c(F)cccc2F)C3)C[C@@H]1CC#N [1-61] | – | NA/ 80%
C=CC(=O)N1CCN(c2nc(OC[C@@H]3CCCN3C)nc3c2CN(Cc2cc(C(F)F)ccc2C)C3)[C@@H](C)C1 [1-64] | 0%/ 0% | 0%/ 0%
C=CC(=O)N1CCN(c2nc(OC[C@@H]3CCCN3C)nc3c2CN(Cc2nc(OC)ccc2Cl)C3)[C@@H](C)C1 [1-65] | 0% | 2%
C=CC(=O)N1CCN(c2nc(OCC3CCCC3)nc3c2CN(Cc2c(F)cccc2OC)C3)C[C@@H]1CC#N [1-66] | 1% | 14%
C=CC(=O)N1CCN(c2nc(OC[C@@H]3CCCN3C)nc3c2CN(Cc2cc(Cl)ccc2C)C3)C[C@@H]1CC#N [1-67] | 70% | 92%
C=CC(=O)N1CCN(c2nc(OC[C@@H]3CCCN3C)nc3c2CN(Cc2cc(OC)ccc2Cl)C3)C[C@@H]1CC#N [1-68] | 90% | 97%
C=CC(=O)N1CCN(c2nc(OC[C@@H]3CCCN3C)nc3c2CN(Cc2[nH]c(=O)ccc2Cl)C3)[C@@H](C)C1 [1-69, 6-((4-((S)-4-acryloyl-2-methylpiperazin-1-yl)-2-(((S)-1-methylpyrrolidin-2-yl)methoxy)-5,7-dihydro-6H-pyrrolo[3,4-d]pyrimidin-6-yl)methyl)-5-chloropyridin-2(1H)-one] | 0%/ 0% | 0%/ 0%
C=CC(=O)N1CCN(c2nc(OC[C@@H]3CCCN3C)nc3c2CN(Cc2cc(C)ccc2C)C3)C[C@@H]1CC#N [1-70] | 77% | 94%
C=CC(=O)N1CCN(c2nc(OCC3CCCC3)nc3c2CN(Cc2c(O)cccc2F)C3)C[C@@H]1CC#N [1-71] | 9% | 45%
C=CC(=O)N1CCN(c2nc(OC[C@@H]3CCCN3C)nc3c2CN(C2CCCc4cccc(Cl)c42)C3)C[C@@H]1CC#N (stereo partly shown) [1-72] | 95% | 98%
C=CC(=O)N1CCN(c2nc(OC[C@@H]3CCCN3C)nc3c2CN(C(C)c2cc(F)ccc2C)C3)C[C@@H]1CC#N (stereo partly shown) [1-73] | 61% | 86%
C=CC(=O)N1CCN(c2nc(OC)nc3c2CN(Cc2cc(OC)ccc2Cl)C3)C[C@@H]1CC#N [1-74] | 2% | 21%
C=CC(=O)N1CCN(c2nc(OC[C@@H]3CCCN3C)nc3c2CN(Cc2ccccc2Cl)C3)C[C@@H]1CC#N [1-75] | 96% | 97%
C=CC(=O)N1CCN(c2nc(OC)nc3c2CN(Cc2cc(F)ccc2Cl)C3)C[C@@H]1CC#N [1-76] | 0% | 7%
C=CC(=O)N1CCN(c2nc(OC[C@@H]3CCCN3C)nc3c2CN(Cc2ccccc2)C3)C[C@@H]1CC#N [1-77] | 27% | 43%
C=CC(=O)N1CCN(c2nc(OC)nc3c2CN(Cc2cc(O)ccc2Cl)C3)C[C@@H]1CC#N [1-78] | 89% | 97%
C=CC(=O)N1CCN(c2nc(OC[C@@H]3CCCO3)nc3c2CN(Cc2c(F)cccc2OC)C3)C[C@@H]1CC#N [1-79] | 3% | 23%
C=CC(=O)N1CCN(c2nc(OC[C@@H]3CCCN3C)nc3c2CN(Cc2cc(C)ccc2Cl)C3)C[C@@H]1CC#N [1-80] | 94% | 96%
C=CC(=O)N1CCN(c2nc(OC[C@@H]3CCCN3C)nc3c2CN(Cc2cccc(Cl)c2Cl)C3)C[C@@H]1CC#N [1-81] | 96% | 98%
C=CC(=O)N1CCN(c2nc(OC[C@@H]3CCCN3C)nc3c2CN(Cc2c(Cl)cccc2OC(F)F)C3)C[C@@H]1CC#N [1-82] | 94% | 98%
